Experimental data published in US8614201B2 (Janssen Pharmaceutica NV, priority 2009, dated 2013).

Biological target: Human TRPA1 (Homo sapiens, UniProt O75762)
Experiment: Assay 1: In vitro cellular testing of TRPA1 modulation (CHO-TREx, Fluo-3 calcium fluorescence, AITC agonist)
Type: cell-based
Set-up: expressed in transfected cells; host or cells: CHO-TREx cells (Invitrogen), vector pcDNA4/TO
Details: CHO-TREx cells expressing human TRPA1; Fluo-3 fluorescence (FLIPR/Tetra); agonist 15 μM allyl isothiocyanate (AITC); 30 minute antagonist incubation
Method in brief: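 Antagonist potency is the 50% reduction of the AITC (15 μM) calcium response, Hill-fitted against no-antagonist and 10 μM ruthenium red controls. Fluo-3-loaded (4 μM) CHO-TREx cells with tetracycline-inducible human TRPA1 got compound in HEPES saline pH 7.4 for 30 min, usually from 10 μM in three-fold dilutions.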

Human TRPA1, sequence (O75762 whole entry): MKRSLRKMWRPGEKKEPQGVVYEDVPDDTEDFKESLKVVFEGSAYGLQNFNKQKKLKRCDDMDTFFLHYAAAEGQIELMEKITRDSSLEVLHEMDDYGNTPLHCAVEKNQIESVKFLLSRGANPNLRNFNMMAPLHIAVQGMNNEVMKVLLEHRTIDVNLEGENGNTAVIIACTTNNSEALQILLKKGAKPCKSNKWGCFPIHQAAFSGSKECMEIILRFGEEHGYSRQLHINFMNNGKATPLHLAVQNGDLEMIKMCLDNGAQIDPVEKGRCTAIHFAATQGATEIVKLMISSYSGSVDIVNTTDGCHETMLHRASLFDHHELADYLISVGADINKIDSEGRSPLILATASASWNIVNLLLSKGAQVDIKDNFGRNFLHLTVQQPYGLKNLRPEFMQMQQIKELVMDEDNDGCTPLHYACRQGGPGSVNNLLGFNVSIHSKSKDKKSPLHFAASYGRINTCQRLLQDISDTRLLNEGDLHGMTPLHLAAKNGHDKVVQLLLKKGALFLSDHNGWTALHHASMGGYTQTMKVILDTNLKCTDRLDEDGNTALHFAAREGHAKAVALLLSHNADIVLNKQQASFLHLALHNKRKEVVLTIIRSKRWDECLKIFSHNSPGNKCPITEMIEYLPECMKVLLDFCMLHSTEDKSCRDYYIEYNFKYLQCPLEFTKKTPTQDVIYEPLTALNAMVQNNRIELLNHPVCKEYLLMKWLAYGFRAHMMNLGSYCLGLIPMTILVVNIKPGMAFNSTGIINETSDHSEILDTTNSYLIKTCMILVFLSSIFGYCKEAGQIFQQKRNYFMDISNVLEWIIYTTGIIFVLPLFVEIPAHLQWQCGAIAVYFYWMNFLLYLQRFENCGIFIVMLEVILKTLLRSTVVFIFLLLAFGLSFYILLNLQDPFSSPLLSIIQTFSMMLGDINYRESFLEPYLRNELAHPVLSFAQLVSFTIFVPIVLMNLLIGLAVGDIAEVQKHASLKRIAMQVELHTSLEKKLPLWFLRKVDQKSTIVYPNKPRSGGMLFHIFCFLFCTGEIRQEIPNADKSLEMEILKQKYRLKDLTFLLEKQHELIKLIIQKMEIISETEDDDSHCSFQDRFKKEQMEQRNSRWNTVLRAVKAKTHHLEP

SMILES | IC50
O=C(NCc1ccnc(-c2ccc(C(F)(F)F)cc2)c1)[C@@H]1CCCN1S(=O)(=O)c1ccc(F)cc1 [Example 123, 1-(4-Fluoro-benzenesulfonyl)-pyrrolidine-2S-carboxylic acid [2-(4-trifluoromethyl-phenyl)-pyridin-4-ylmethyl]-amide] | 32 nM
O=C(NCc1ccnc(-c2ccc(C(F)(F)F)cc2)c1)[C@@H]1CCCN1S(=O)(=O)c1ccc(Cl)s1 [Example 124, 1-(5-Chlorothiophene-2-sulfonyl)pyrrolidine-2S-carboxylic acid [2-(4-trifluoromethylphenyl)-pyridin-4-ylmethyl]-amide] | 11 nM
O=C(NCc1ccnc(-c2ccc(C(F)(F)F)cc2)c1)[C@@H]1CC(F)(F)CN1S(=O)(=O)c1ccc(F)cc1 [Example 125, 4,4-Difluoro-1-(4-fluorobenzenesulfonyl)-pyrrolidine-2S-carboxylic acid [2-(4-trifluoromethylphenyl)-pyridin-4-ylmethyl]-amide] | 63 nM
O=C(NCc1ccnc(-c2ccc(C(F)(F)F)cc2)c1)[C@@H]1CC(F)(F)CN1S(=O)(=O)c1ccc(Cl)s1 [Example 126, 1-(5-Chlorothiophene-2-sulfonyl)-4,4-difluoropyrrolidine-2S-carboxylic acid [2-(4-trifluoromethylphenyl)-pyridin-4-ylmethyl]-amide] | 46 nM
O=C(NCc1ccnc(-c2ccc(C(F)(F)F)cc2)c1)[C@@H]1C=CCN1S(=O)(=O)c1ccc(F)cc1 [Example 127, 1-(4-Fluorobenzenesulfonyl)-2,5-dihydro-1H-pyrrole-2S-carboxylic acid [2-(4-trifluoromethylphenyl)-pyridin-4-ylmethyl]-amide] | 42 nM
O=C(NCc1ccnc(-c2ccc(C(F)(F)F)cc2)c1)[C@@H]1C=CCN1S(=O)(=O)c1ccc(Cl)s1 [Example 128, 1-(5-Chlorothiophene-2-sulfonyl)-2,5-dihydro-1H-pyrrole-2S-carboxylic acid [2-(4-trifluoromethylphenyl)-pyridin-4-ylmethyl]-amide] | 49 nM
O=C(NCc1ccnc(-c2ccc(OC(F)(F)F)cc2)c1)[C@@H]1CCCN1S(=O)(=O)c1ccc(F)cc1 [Example 129, 1-(4-Fluoro-benzenesulfonyl)-pyrrolidine-2S-carboxylic acid [2-(4-trifluoromethoxy-phenyl)-pyridin-4-ylmethyl]-amide] | 19 nM
O=C(NCc1ccnc(-c2ccc(OC(F)(F)F)cc2)c1)[C@@H]1CCCN1S(=O)(=O)c1ccc(Cl)s1 [Example 130, 1-(5-Chloro-thiophene-2-sulfonyl)-pyrrolidine-2S-carboxylic acid [2-(4-trifluoromethoxy-phenyl)-pyridin-4-ylmethyl]-amide] | 6 nM
O=C(NCc1ccnc(-c2ccc(OC(F)(F)F)cc2)c1)[C@@H]1CC(F)(F)CN1S(=O)(=O)c1ccc(F)cc1 [Example 131, 4,4-Difluoro-1-(4-fluoro-benzenesulfonyl)-pyrrolidine-2S-carboxylic acid [2-(4-trifluoromethoxy-phenyl)-pyridin-4-ylmethyl]-amide] | 87 nM
O=C(NCc1ccnc(-c2ccc(OC(F)(F)F)cc2)c1)[C@@H]1CC(F)(F)CN1S(=O)(=O)c1ccc(Cl)s1 [Example 132, 1-(5-Chloro-thiophene-2-sulfonyl)-4,4-difluoro-pyrrolidine-2S-carboxylic acid [2-(4-trifluoromethoxy-phenyl)-pyridin-4-ylmethyl]-amide] | 117 nM
O=C(NCc1ccnc(-c2ccc(OC(F)(F)F)cc2)c1)[C@@H]1C=CCN1S(=O)(=O)c1ccc(F)cc1 [Example 133, 1-(4-Fluoro-benzenesulfonyl)-2,5-dihydro-1H-pyrrole-2S-carboxylic acid [2-(4-trifluoromethoxy-phenyl)-pyridin-4-ylmethyl]-amide] | 26 nM
O=C(NCc1ccnc(-c2ccc(OC(F)(F)F)cc2)c1)[C@@H]1C=CCN1S(=O)(=O)c1ccc(Cl)s1 [Example 134, 1-(5-Chloro-thiophene-2-sulfonyl)-2,5-dihydro-1H-pyrrole-2S-carboxylic acid [2-(4-trifluoromethoxy-phenyl)-pyridin-4-ylmethyl]-amide] | 21 nM
O=C(NCc1cc(-c2ccc(C(F)(F)F)cc2)ccn1)[C@@H]1CCCN1S(=O)(=O)c1ccc(F)cc1 [Example 135, 1-(4-Fluoro-benzenesulfonyl)-pyrrolidine-2S-carboxylic acid [4-(4-trifluoromethyl-phenyl)-pyridin-2-ylmethyl]-amide] | 22 nM
O=C(NCc1cc(-c2ccc(C(F)(F)F)cc2)ccn1)[C@@H]1CCCN1S(=O)(=O)c1ccc(Cl)s1 [Example 136, 1-(5-Chloro-thiophene-2-sulfonyl)-pyrrolidine-2S-carboxylic acid [4-(4-trifluoromethyl-phenyl)-pyridin-2-ylmethyl]-amide] | 35 nM
O=C(NCc1cc(-c2ccc(OC(F)(F)F)cc2)ccn1)[C@@H]1CCCN1S(=O)(=O)c1ccc(F)cc1 [Example 137, 1-(4-Fluoro-benzenesulfonyl)-pyrrolidine-2S-carboxylic acid [4-(4-trifluoromethoxy-phenyl)-pyridin-2-ylmethyl]-amide] | 37 nM
O=C(NCc1cc(-c2ccc(OC(F)(F)F)cc2)ccn1)[C@@H]1CCCN1S(=O)(=O)c1ccc(Cl)s1 [Example 138, 1-(5-Chloro-thiophene-2-sulfonyl)-pyrrolidine-2S-carboxylic acid [4-(4-trifluoromethoxy-phenyl)-pyridin-2-ylmethyl]-amide] | 17 nM
O=C(NCc1cc(-c2ccc(C(F)(F)F)cc2)ccn1)[C@@H]1CC(F)(F)CN1S(=O)(=O)c1ccc(F)cc1 [Example 139, 4,4-Difluoro-1-(4-fluoro-benzenesulfonyl)-pyrrolidine-2S-carboxylic acid [4-(4-trifluoromethyl-phenyl)-pyridin-2-ylmethyl]-amide] | 73 nM
O=C(NCc1cc(-c2ccc(C(F)(F)F)cc2)ccn1)[C@@H]1CC(F)(F)CN1S(=O)(=O)c1ccc(Cl)s1 [Example 140, 1-(5-Chloro-thiophene-2-sulfonyl)-4,4-difluoro-pyrrolidine-2S-carboxylic acid [4-(4-trifluoromethyl-phenyl)-pyridin-2-ylmethyl]-amide] | 79 nM
O=C(NCc1cc(-c2ccc(OC(F)(F)F)cc2)ccn1)[C@@H]1CC(F)(F)CN1S(=O)(=O)c1ccc(F)cc1 [Example 141, 4,4-Difluoro-1-(4-fluoro-benzenesulfonyl)-pyrrolidine-2S-carboxylic acid [4-(4-trifluoromethoxy-phenyl)-pyridin-2-ylmethyl]-amide] | 73 nM

Other lines, results leading:

IC50 | SMILES
78 nM | O=C(NCc1cc(-c2ccc(OC(F)(F)F)cc2)ccn1)[C@@H]1CC(F)(F)CN1S(=O)(=O)c1ccc(Cl)s1 [Example 142, 1-(5-Chloro-thiophene-2-sulfonyl)-4,4-difluoro-pyrrolidine-2S-carboxylic acid [4-(4-trifluoromethoxy-phenyl)-pyridin-2-ylmethyl]-amide]
10 nM | O=C(NCc1cc(-c2ccc(C(F)(F)F)cc2)ccn1)[C@@H]1C=CCN1S(=O)(=O)c1ccc(F)cc1 [Example 143, 1-(4-Fluoro-benzenesulfonyl)-2,5-dihydro-1H-pyrrole-2S-carboxylic acid [4-(4-trifluoromethyl-phenyl)-pyridin-2-ylmethyl]-amide]
22 nM | O=C(NCc1cc(-c2ccc(C(F)(F)F)cc2)ccn1)[C@@H]1C=CCN1S(=O)(=O)c1ccc(Cl)s1 [Example 144, 1-(5-Chloro-thiophene-2-sulfonyl)-2,5-dihydro-1H-pyrrole-2S-carboxylic acid [4-(4-trifluoromethyl-phenyl)-pyridin-2-ylmethyl]-amide]
28 nM | O=C(NCc1cc(-c2ccc(OC(F)(F)F)cc2)ccn1)[C@@H]1C=CCN1S(=O)(=O)c1ccc(F)cc1 [Example 145, 1-(4-Fluoro-benzenesulfonyl)-2,5-dihydro-1H-pyrrole-2S-carboxylic acid [4-(4-trifluoromethoxy-phenyl)-pyridin-2-ylmethyl]-amide]
52 nM | O=C(NCc1cc(-c2ccc(OC(F)(F)F)cc2)ccn1)[C@@H]1C=CCN1S(=O)(=O)c1ccc(Cl)s1 [Example 146, 1-(5-Chloro-thiophene-2-sulfonyl)-2,5-dihydro-1H-pyrrole-2S-carboxylic acid [4-(4-trifluoromethoxy-phenyl)-pyridin-2-ylmethyl]-amide]
92 nM | O=C(NCc1cc(-c2ccc(C(F)(F)F)cc2)ncn1)[C@@H]1CCCN1S(=O)(=O)c1ccc(Br)cc1 [Example 147, 1-(4-Bromobenzenesulfonyl)-pyrrolidine-2S-carboxylic acid [6-(4-trifluoromethylphenyl)-pyrimidin-4-ylmethyl]-amide]
28 nM | O=C(NCc1cc(-c2ccc(C(F)(F)F)cc2)ncn1)[C@@H]1CCCN1S(=O)(=O)c1ccc(F)c(F)c1 [Example 148, 1-(3,4-Difluorobenzenesulfonyl)-pyrrolidine-2S-carboxylic acid [6-(4-trifluoromethylphenyl)-pyrimidin-4-ylmethyl]-amide]
3650 nM | O=C(NCc1cc(-c2ccc(C(F)(F)F)cc2)ncn1)[C@@H]1CCCN1S(=O)(=O)c1ccc(OC(F)(F)F)cc1 [Example 149, 1-(4-Trifluoromethoxybenzenesulfonyl)-pyrrolidine-2S-carboxylic acid [6-(4-trifluoromethylphenyl)-pyrimidin-4-ylmethyl]-amide]
383 nM | COc1ccc(S(=O)(=O)N2CCC[C@H]2C(=O)NCc2cc(-c3ccc(C(F)(F)F)cc3)ncn2)cc1 [Example 150, 1-(4-Methoxybenzenesulfonyl)-pyrrolidine-2S-carboxylic acid [6-(4-trifluoromethylphenyl)-pyrimidin-4-ylmethyl]-amide]
